Consider 7 compounds from patent publication US20240208953A1, “"Cyclopenta[c]pyrrol Negative Allosteric Modulators of NR2B"” (Novartis AG, priority 2021, published 2024).

As usually defined, the IC50 is the concentration needed to halve the response being measured.

One data set deals with NR2B (Rattus norvegicus (Rat), UniProt Q00960). Put plainly: NR2B rat cortical neuron calcium influx assay. The class given is cell-based. The following applies: for relative potency in the NR2B rat cortical neuron calcium influx assay: comparison within Examples 5A/5B/5C/5D; for IC50: rat cortical neurons, glutamate and glycine stimulated calcium influx. The method, boiled down:
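Primary cortical neurons from E18 Sprague Dawley rat embryos, cultured 2 days, were loaded with Calcium 6 dye in 1.8 mM Ca-HBSS and preincubated with compound 2 h at 37° C. Glutamate plus glycine was added and fluorescence read for 2 min as peak/baseline ratio; duplicate dose-response curves gave IC50 (μM) and maximal inhibition.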

The target of the next data set is P-glycoprotein (P-gp) (Homo sapiens (Human), UniProt P08183). Put plainly: MDCK-MDR1 permeability / efflux assay. The class given is in vitro ADME. The following applies: for efflux ratio at 120 min, 10 μM: dog, MDCK-MDR1, pH 7.4, efflux ratio, read-out: MDCK-MDR1 ER. In outline: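 MDCK-MDR1 monolayers grown 4 days on Transwells; 10 μM compound in HBSS/10 mM HEPES pH 7.4 with 0.02% BSA, run A→B and B→A for 120 min at 37 °C without shaking. Donor and receiver concentrations by LC-MS/MS; Papp and recovery calculated, efflux ratio from B→A vs A→B.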
Chain of P-glycoprotein (P-gp) (P08183 whole entry): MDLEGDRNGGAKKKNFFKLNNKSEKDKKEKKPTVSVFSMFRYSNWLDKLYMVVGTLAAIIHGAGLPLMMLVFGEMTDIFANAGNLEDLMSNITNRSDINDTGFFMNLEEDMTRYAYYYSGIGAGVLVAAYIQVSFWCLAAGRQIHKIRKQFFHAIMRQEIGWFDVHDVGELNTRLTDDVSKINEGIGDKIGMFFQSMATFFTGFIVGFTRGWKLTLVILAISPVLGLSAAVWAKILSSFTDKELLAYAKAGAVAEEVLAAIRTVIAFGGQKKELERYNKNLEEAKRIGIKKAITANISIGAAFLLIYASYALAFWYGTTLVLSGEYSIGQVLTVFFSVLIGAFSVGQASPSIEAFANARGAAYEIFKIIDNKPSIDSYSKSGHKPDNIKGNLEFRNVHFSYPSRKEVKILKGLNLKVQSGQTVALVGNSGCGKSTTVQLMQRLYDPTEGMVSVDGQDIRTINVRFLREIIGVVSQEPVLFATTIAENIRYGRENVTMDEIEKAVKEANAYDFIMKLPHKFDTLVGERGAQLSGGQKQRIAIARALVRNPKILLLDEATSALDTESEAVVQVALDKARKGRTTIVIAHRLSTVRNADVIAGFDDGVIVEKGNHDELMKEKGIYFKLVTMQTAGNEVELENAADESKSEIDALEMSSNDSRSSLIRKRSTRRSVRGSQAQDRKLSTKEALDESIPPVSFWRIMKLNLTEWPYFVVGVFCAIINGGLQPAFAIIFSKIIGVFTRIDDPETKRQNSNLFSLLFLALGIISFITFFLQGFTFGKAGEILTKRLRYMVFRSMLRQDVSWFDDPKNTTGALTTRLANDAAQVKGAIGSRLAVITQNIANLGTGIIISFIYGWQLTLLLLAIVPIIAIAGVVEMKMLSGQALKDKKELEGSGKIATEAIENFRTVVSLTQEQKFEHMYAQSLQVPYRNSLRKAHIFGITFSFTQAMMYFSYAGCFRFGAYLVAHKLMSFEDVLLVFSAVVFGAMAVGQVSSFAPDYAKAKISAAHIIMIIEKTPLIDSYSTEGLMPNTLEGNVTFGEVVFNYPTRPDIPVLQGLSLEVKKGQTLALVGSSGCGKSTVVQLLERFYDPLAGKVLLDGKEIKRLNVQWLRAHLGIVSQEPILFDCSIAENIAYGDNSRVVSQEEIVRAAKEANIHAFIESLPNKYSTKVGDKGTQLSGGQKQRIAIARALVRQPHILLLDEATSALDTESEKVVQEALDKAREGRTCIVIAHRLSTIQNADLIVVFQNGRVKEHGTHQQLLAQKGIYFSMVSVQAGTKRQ

The next data set addresses hERG (Homo sapiens (Human), UniProt Q12809). Put plainly: hERG Qpatch assay. Type of data set: cell-based. The procedure:
Example 3. hERG Qpatch Assay Protocol
This assay was performed by the method described in Skepper et al., J. Med. Chem. 2020, 63, 7773-7816:
hERG expressing cell lines were produced in-house at Novartis using CHO-K1 T-Rex inducible plasmid system (Invitrogen) as described previously (Cao et al., Assay Drug Dev. Technol. 2010, 8, 766-780). Cell lines were maintained in Ham's F12 nutrient mixture containing 10% FBS, blasticidin ([…]; InvivoGen), hygromycin B ([…]; InvivoGen), Zeocin ([…], Invitrogen), and neomycin ([…], Invitrogen) using SelecT automated cell culture system (TAP Biosystems, Cambridge, U.K.). hERG and hCav1.2 channels expression was induced with tetracycline (0.25-1 μg/mL, Invitrogen) at least 24 h prior to the experiment.
hERG currents were recorded using the Qpatch automated patch clamp systems (Sophion Bioscience Inc., North Brunswick, NJ) in the whole (single) cell configuration. hERG expressing CHO-K1 cells were harvested with Detachin (Genlantis) and stored in the modified serum-free SFM-2 media (Life Technologies) at room temperature. The extracellular solution contained (in mM) NaCl (145), KCl (4), MgCl2 (1), CaCl2 (2), and HEPES (10), pH 7.4, with NaOH. The intracellular solution contained KCl (135), MgCl2 (1.75), CaCl2 (5.4), EGTA (10), K2-ATP (4), and HEPES (10), pH 7.2, with KOH. After whole cell configuration was achieved, the cell was held at −90 mV, and a 0.1 s pulse to −50 mV was delivered to measure the leaking current, which was subtracted from the tail current online. Then the cell was depolarized to +20 mV for 4 s (prepulse), followed by a 4 s test pulse to −50 mV to reveal the hERG tail current. To monitor changes in the current amplitude, this voltage protocol was repeatedly applied every 20 s. Test compounds were first diluted in DMSO for six dose-response experiments and then dissolved in the extracellular solution using Freedom EVO liquid handling robotic system (Tecan, Männedorf, Switzerland). The final DMSO concentration in samples was 0.3% v/v. Amitriptyline (Sigma) was tested as a positive control. Data were analyzed using in-house developed MatLab-based program (MathWorks, Natick, MA
A general note: The hERG channel carries a current that helps repolarise heart muscle cells.

Where [1] appears, read: Table 2, hERG expressing CHO-K1 cells.

Chain of hERG (Q12809 whole entry): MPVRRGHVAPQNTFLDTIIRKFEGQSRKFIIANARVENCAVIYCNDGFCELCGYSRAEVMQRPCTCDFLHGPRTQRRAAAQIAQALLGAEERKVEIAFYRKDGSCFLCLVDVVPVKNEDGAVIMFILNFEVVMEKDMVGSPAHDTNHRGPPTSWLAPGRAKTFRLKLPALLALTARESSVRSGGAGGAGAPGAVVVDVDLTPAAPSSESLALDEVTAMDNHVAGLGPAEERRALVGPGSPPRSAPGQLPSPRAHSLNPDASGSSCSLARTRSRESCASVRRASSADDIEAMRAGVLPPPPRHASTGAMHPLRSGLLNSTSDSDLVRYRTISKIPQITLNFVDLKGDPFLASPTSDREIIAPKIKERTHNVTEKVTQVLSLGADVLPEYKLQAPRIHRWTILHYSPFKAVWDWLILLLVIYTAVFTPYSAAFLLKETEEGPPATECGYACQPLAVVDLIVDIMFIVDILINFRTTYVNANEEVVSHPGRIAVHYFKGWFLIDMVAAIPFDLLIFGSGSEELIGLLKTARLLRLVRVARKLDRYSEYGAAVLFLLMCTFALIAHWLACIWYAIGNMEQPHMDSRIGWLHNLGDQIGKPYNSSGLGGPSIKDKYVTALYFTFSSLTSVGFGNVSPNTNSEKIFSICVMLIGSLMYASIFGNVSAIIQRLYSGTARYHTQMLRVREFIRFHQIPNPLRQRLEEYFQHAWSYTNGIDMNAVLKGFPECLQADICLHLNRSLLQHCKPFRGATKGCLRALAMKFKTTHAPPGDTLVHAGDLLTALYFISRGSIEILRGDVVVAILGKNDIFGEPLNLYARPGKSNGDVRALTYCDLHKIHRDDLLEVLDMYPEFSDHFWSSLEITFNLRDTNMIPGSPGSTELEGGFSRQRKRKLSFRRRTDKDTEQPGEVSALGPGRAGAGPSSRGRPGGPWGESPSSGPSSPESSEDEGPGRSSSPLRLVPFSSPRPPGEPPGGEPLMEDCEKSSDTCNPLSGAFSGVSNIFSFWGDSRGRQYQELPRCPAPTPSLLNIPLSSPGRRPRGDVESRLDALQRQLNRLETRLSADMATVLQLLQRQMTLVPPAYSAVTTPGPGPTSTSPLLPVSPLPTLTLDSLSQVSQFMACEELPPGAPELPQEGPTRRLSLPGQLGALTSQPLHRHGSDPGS
Chain of NR2B (Q00960 27-1482, other chains not shown): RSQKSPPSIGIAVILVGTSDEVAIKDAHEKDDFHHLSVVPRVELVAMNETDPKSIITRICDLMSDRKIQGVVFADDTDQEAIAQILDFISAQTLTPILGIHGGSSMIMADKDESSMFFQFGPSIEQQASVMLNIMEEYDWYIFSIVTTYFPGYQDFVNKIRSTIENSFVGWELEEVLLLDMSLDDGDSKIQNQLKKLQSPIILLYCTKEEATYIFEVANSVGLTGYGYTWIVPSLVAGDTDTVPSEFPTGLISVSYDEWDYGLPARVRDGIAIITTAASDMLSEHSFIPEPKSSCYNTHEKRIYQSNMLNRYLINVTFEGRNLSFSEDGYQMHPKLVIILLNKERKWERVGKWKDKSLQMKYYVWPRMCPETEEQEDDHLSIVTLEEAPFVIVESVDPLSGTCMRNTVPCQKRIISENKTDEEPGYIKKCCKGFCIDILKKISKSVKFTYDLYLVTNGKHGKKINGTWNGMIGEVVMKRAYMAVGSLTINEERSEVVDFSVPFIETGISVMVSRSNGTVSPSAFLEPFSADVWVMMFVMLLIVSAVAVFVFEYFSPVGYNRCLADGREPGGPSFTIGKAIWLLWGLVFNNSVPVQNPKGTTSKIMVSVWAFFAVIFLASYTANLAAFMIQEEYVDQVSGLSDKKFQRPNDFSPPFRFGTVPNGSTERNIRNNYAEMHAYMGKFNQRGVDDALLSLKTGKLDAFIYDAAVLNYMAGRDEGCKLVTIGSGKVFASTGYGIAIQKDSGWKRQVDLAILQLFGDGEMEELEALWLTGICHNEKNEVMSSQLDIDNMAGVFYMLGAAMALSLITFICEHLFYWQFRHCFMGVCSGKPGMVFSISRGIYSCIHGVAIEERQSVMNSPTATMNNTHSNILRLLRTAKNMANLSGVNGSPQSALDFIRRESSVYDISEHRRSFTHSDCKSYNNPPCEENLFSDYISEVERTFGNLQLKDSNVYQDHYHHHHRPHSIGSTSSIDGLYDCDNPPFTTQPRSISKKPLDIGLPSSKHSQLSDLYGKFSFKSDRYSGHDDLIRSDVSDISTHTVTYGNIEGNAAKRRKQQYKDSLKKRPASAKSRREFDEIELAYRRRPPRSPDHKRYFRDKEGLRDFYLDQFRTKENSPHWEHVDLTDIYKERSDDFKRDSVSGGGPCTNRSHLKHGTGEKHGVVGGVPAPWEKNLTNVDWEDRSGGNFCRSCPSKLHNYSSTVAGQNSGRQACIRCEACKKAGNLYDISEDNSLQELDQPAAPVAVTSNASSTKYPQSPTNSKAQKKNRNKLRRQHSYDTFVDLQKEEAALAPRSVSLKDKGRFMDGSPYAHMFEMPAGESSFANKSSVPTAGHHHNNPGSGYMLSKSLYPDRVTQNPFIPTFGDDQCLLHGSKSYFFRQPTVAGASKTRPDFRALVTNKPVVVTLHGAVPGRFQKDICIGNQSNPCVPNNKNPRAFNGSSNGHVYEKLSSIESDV

Regarding `O=C1CCc2cc(C(O)CN3C[C@H]4C[C@H](Oc5ccccc5F)C[C@@]4(O)C3)ccc2N1` (single isomer, unassigned) [Example 5D], at NR2B, the “relative potency in the NR2B rat cortical neuron calcium influx assay” value was “more potent than Examples 5A and 5B”. For the same compound, the IC50 was 610 pM on NR2B; 5.9 µM against hERG (setting [1]); 5.9 µM against hERG (Table 3, matched pairs). On P-glycoprotein (P-gp) (efflux ratio, 10 μM, 120 min), the “MDCK-MDR1 ER” value is given as 1.93.

With `O=C1Nc2cc(F)c([C@@H](O)CN3C[C@H]4C[C@H](Oc5ccccc5)C[C@@]4(O)C3)cc2CO1` (single isomer, unassigned) [Example 36A], the values for the IC50 at NR2B and at hERG (setting [1]) were 490 pM and 5.5 µM, respectively. In addition, at P-glycoprotein (P-gp), the efflux ratio at 120 min, 10 μM is 4.04.

With `O=C1Nc2ccc([C@@H](O)CN3C[C@H]4C[C@H](Oc5ccccc5)C[C@@]4(O)C3)cc2CO1` (single isomer, unassigned) [Example 28A], the IC50 was found to be 830 pM on NR2B and 2.4 µM at hERG (setting [1]). At P-glycoprotein (P-gp), the efflux ratio at 120 min, 10 μM is 3.32.

On to `O=C1CCc2cc([C@@H](O)CN3C[C@@H]4C[C@@H](Oc5cccc(F)c5F)C[C@]4(O)C3)ccc2N1` (single isomer, unassigned) [Example 24C], for which the IC50 on NR2B came out at 21 pM; at hERG (setting [1]), 1.2 µM. Besides, the efflux ratio at 120 min, 10 μM at P-glycoprotein (P-gp) amounted to 1.46.

As to `O=C1Nc2c(F)cc([C@@H](O)CN3C[C@H]4C[C@H](Oc5ccccc5)C[C@@]4(O)C3)cc2CO1` (single isomer, unassigned) [Example 33A], the IC50 at NR2B was found to be 4900 pM; against hERG (setting [1]) it was 8.2 µM. The efflux ratio at 120 min, 10 μM at P-glycoprotein (P-gp) is 1.87.

Consider `O=C1CCc2cc([C@@H](O)CN3C[C@H]4C[C@H](Oc5ccccc5)C[C@@]4(O)C3)cc(F)c2N1` (single isomer, unassigned) [Example 31A], for which the IC50 on NR2B was 10000 pM; at hERG (setting [1]), 7.3 µM. In addition, the efflux ratio at 120 min, 10 μM on P-glycoprotein (P-gp) was determined as 1.63.

`O=C1CCc2cc(C(O)CN3CC4CC(Oc5ccccc5F)CC4(O)C3)ccc2N1` (stereo in doubt) [Example 5C, 6-((R)-2-((3aR,5R,6aS)-5-(2-fluorophenoxy)-3a-hydroxyhexahydrocyclopenta[c]pyrrol-2(1H)-yl)-1-hydroxyethyl)-3,4-dihydroquinolin-2(1H)-one]: the “relative potency in the NR2B rat cortical neuron calcium influx assay” value on NR2B is “more potent than Examples 5A and 5B”. Also, the IC50 at NR2B turned out to be 590 pM; on hERG (setting [1]), 6 µM; against hERG (Table 3, matched pairs), 6 µM. On P-glycoprotein (P-gp), the efflux ratio at 120 min, 10 μM turned out to be 2.07.
